Reference: ChEMBL document CHEMBL1909046, “DrugMatrix in vitro pharmacology data”

Tests used:
[1] = DRUGMATRIX: ATPase, Na+/K+ enzyme inhibition (substrate: ATP); type: tissue-based, Sus scrofa, Heart; details: Not Active = under 50% inhibition at 10 µM
[2] = target: Vasopressin V1a receptor (Homo sapiens, UniProt P37288); type: cell membranes, Membrane; details: hek293; also: in other assays of this panel Not Active means under 50% inhibition at 10 µM
[3] = DRUGMATRIX: Glutamate, NMDA, Phencyclidine radioligand binding (ligand: [3H] TCP); type: cell membranes, Rattus norvegicus, Wistar, Cerebral cortex, Membrane; details: Not Active = under 50% inhibition at 10 µM
[4] = DRUGMATRIX: Nicotinic Acetylcholine radioligand binding (ligand: [125I] Epibatidine); type: cell membranes, Membrane; details: imr-32; Not Active = under 50% inhibition at 10 µM
[5] = DRUGMATRIX: Phorbol Ester radioligand binding (ligand: [3H] PDBu); type: cell membranes, Mus musculus, ICR, Brain, Membrane; details: Not Active = under 50% inhibition at 10 µM
[6] = target: Acetylcholinesterase (Homo sapiens, UniProt P22303); assay: DRUGMATRIX: Acetylcholinesterase enzyme inhibition (substrate: acetylthiocholine); type: cell-based, HEK293; details: Not Active = under 50% inhibition at 10 µM
Sequence of Acetylcholinesterase (P22303 whole entry): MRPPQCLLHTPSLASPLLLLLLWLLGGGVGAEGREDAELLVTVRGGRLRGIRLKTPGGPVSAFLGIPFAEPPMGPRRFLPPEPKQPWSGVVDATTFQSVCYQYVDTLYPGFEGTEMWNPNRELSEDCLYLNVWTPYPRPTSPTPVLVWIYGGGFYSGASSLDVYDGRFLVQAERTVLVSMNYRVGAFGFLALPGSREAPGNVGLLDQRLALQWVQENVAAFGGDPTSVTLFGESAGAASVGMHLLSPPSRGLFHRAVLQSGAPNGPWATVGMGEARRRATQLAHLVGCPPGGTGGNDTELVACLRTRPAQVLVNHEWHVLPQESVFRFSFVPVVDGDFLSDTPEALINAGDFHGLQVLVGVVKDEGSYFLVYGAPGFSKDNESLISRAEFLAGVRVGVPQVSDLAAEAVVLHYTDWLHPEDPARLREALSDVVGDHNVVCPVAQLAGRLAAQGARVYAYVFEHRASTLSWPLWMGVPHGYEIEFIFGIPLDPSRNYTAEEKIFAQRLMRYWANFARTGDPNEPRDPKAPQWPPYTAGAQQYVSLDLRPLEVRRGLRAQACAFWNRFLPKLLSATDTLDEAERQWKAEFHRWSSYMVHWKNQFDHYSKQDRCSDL

[7] = target: T1, Adenosine receptor A1 (Homo sapiens, UniProt P30542); type: cell membranes, CHO, Membrane; details: cho;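 also: radioligand binding assay at the adenosine A1 receptor, with DPCPX serving as the labelled ligand; in other assays of this panel Not Active means under 50% inhibition at 10 µM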
T1 sequence (P30542 whole entry): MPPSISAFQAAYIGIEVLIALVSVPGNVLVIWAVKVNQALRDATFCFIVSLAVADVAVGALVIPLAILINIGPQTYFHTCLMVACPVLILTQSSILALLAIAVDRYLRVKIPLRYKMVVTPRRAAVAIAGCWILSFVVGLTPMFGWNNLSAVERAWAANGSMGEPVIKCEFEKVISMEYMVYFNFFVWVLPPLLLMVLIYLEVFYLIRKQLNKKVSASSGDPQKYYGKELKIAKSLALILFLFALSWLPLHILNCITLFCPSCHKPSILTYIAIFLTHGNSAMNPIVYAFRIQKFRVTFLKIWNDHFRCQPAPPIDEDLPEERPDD

[8] = target: T2, Cytochrome P450 1A2 (Homo sapiens, UniProt P05177); details: bti-tn-5b1-4; also: in other assays of this panel Not Active means under 50% inhibition at 10 µM
T2 sequence (P05177 whole entry): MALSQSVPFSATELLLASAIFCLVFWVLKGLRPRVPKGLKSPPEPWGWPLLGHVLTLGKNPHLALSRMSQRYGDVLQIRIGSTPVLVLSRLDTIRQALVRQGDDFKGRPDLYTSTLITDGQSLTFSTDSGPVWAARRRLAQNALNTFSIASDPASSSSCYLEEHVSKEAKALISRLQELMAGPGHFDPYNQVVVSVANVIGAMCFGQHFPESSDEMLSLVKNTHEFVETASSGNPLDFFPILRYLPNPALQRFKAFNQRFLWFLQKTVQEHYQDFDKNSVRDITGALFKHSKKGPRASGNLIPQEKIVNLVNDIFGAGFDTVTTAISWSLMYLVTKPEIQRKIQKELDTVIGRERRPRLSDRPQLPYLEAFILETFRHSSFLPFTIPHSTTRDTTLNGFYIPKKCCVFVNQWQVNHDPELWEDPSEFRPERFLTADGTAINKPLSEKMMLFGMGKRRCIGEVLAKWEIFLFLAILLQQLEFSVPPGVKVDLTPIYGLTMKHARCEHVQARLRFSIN

[9] = target: T3, Estrogen receptor (Homo sapiens, UniProt P03372); details: sf9; also: in other assays of this panel Not Active means under 50% inhibition at 10 µM
T3 sequence (P03372 whole entry): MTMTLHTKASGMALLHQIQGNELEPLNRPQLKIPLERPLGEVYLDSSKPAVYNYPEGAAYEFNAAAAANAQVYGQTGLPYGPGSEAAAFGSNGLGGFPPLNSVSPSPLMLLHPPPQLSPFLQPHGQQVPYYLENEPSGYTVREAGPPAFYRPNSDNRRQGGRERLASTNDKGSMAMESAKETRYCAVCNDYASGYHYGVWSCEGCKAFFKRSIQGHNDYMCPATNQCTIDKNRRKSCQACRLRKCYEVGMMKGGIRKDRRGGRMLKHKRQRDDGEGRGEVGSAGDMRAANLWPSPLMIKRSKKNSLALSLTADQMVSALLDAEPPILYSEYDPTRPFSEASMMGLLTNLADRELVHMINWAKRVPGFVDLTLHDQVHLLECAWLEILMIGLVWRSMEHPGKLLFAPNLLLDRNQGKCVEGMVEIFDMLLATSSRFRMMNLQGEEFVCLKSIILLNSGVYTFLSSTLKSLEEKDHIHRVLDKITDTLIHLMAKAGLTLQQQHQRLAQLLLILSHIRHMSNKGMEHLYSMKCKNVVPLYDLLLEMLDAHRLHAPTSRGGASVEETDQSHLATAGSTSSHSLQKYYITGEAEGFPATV

Sequence of Vasopressin V1a receptor (P37288 whole entry): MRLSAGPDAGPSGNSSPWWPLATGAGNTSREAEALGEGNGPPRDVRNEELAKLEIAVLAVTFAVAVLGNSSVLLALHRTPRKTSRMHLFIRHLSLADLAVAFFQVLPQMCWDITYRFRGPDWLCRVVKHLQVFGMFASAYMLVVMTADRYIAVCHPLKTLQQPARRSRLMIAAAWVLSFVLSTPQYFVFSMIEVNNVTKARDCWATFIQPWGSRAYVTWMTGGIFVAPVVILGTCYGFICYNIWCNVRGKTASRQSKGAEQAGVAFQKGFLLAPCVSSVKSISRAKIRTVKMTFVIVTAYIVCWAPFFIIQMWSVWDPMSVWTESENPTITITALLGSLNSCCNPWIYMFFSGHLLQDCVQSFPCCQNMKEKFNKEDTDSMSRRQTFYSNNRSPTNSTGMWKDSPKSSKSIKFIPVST

Row | Compound | IC50 [1] | Ki [1] | IC50 [2] | IC50 [3] | Ki [3] | IC50 [4] | Ki [4] | IC50 [5] | Ki [5] | IC50 ([6]; hek293) | IC50 [7] | IC50 [8] | Ki [8] | IC50 [9] | Ki [2] | Ki ([6]; hek293) | Ki [7] | Ki [9] | IC50 ([6]; read-out: IC50) [µM] | IC50 ([1]; read-out: IC50) [µM]
1 | NCCCCCC(=O)O [AMINOCAPROIC ACID] | Not Active | Not Active | Not Active | Not Active | Not Active | Not Active | Not Active | Not Active | Not Active | Not Active | Not Active | Not Active | Not Active | Not Active | – | – | – | – | – | –
2 | CCC1(c2ccc(N)cc2)CCC(=O)NC1=O (stereo unspecified) [AMINOGLUTETHIMIDE] | Not Active | Not Active | Not Active | Not Active | Not Active | Not Active | Not Active | Not Active | Not Active | Not Active | Not Active | Not Active | Not Active | Not Active | – | – | – | – | – | –
3 | Cc1ccc(/N=C/N(C)/C=N/c2ccc(C)cc2C)c(C)c1 [AMITRAZ] | Not Active | Not Active | Not Active | Not Active | Not Active | Not Active | Not Active | Not Active | Not Active | Not Active | Not Active | Not Active | Not Active | Not Active | – | – | – | – | – | –
4 | CCOC(=O)C1=C(COCCN)NC(C)=C(C(=O)OC)C1c1ccccc1Cl (stereo unspecified) [AMLODIPINE] | Not Active | Not Active | Not Active | Not Active | Not Active | Not Active | Not Active | Not Active | Not Active | Not Active | Not Active | Not Active | Not Active | Not Active | – | – | – | – | – | –
5 | COc1ccc(C[C@H]2NC[C@H](O)[C@H]2OC(C)=O)cc1 [ANISOMYCIN] | Not Active | Not Active | Not Active | Not Active | Not Active | Not Active | Not Active | Not Active | Not Active | Not Active | Not Active | Not Active | Not Active | Not Active | Not Active | Not Active | Not Active | Not Active | – | –
6 | Nc1ncn([C@@H]2O[C@H](CO)[C@@H](O)[C@H]2O)c(=O)n1 [AZACITIDINE] | Not Active | Not Active | Not Active | Not Active | Not Active | Not Active | Not Active | Not Active | Not Active | Not Active | Not Active | Not Active | Not Active | Not Active | – | – | – | – | – | –
7 | CN(C)C(=O)Oc1cc(OC(=O)N(C)C)cc(C(O)CNC(C)(C)C)c1 (stereo unspecified) [BAMBUTEROL] | Not Active | Not Active | Not Active | Not Active | Not Active | Not Active | Not Active | Not Active | Not Active | Not Active | Not Active | Not Active | Not Active | Not Active | – | – | – | – | – | –
8 | CC(C)C(Br)C(=O)NC(N)=O (stereo unspecified) [BROMISOVALUM] | Not Active | Not Active | Not Active | Not Active | Not Active | Not Active | Not Active | Not Active | Not Active | Not Active | Not Active | Not Active | Not Active | Not Active | – | – | – | – | – | –
9 | CN(Cc1ccc(C(C)(C)C)cc1)Cc1cccc2ccccc12 [BUTENAFINE] | Not Active | Not Active | Not Active | Not Active | Not Active | Not Active | Not Active | Not Active | Not Active | – | Not Active | Not Active | Not Active | Not Active | – | – | – | – | 6.91 | –
10 | Cc1ccc(-c2cc(C(F)(F)F)nn2-c2ccc(S(N)(=O)=O)cc2)cc1 [CELECOXIB] | Not Active | Not Active | Not Active | Not Active | Not Active | Not Active | Not Active | Not Active | Not Active | Not Active | Not Active | Not Active | Not Active | Not Active | – | – | – | – | – | –
11 | O=C(O)CCCc1ccc(N(CCCl)CCCl)cc1 [CHLORAMBUCIL] | Not Active | Not Active | Not Active | Not Active | Not Active | Not Active | Not Active | Not Active | Not Active | Not Active | Not Active | Not Active | Not Active | Not Active | – | – | – | – | – | –
12 | C[C@H](CCC(=O)O)[C@H]1CC[C@H]2[C@@H]3[C@H](O)C[C@@H]4C[C@H](O)CC[C@]4(C)[C@H]3C[C@H](O)[C@]12C [CHOLIC ACID] | Not Active | Not Active | Not Active | Not Active | Not Active | Not Active | Not Active | Not Active | Not Active | Not Active | Not Active | Not Active | Not Active | Not Active | – | – | – | – | – | –
13 | Cc1cc(C2CCCCC2)n(O)c(=O)c1 [CICLOPIROX] | Not Active | Not Active | Not Active | Not Active | Not Active | Not Active | Not Active | Not Active | Not Active | Not Active | Not Active | Not Active | Not Active | Not Active | – | – | – | – | – | –
14 | CC1=C2C(=CO[C@H](C)[C@H]2C)C(O)=C(C(=O)O)C1=O [CITRININ] | Not Active | Not Active | Not Active | Not Active | Not Active | Not Active | Not Active | Not Active | Not Active | Not Active | Not Active | Not Active | Not Active | Not Active | – | – | – | – | – | –
15 | Cc1cc(C(C#N)c2ccc(Cl)cc2)c(Cl)cc1NC(=O)c1cc(I)cc(I)c1O (stereo unspecified) [CLOSANTEL] | – | – | Not Active | Not Active | Not Active | Not Active | Not Active | Not Active | Not Active | – | Not Active | Not Active | Not Active | Not Active | – | – | – | – | 2.95 | 4.88
16 | Cc1onc(-c2ccccc2Cl)c1C(=O)N[C@@H]1C(=O)N2[C@@H]1SC(C)(C)[C@@H]2C(=O)O [CLOXACILLIN] | Not Active | Not Active | Not Active | Not Active | Not Active | Not Active | Not Active | Not Active | Not Active | Not Active | Not Active | Not Active | Not Active | Not Active | – | – | – | – | – | –
17 | CC1CC(OC(=O)C(O)c2ccccc2)CC(C)(C)C1 (stereo unspecified) [CYCLANDELATE] | Not Active | Not Active | Not Active | Not Active | Not Active | Not Active | Not Active | Not Active | Not Active | Not Active | Not Active | Not Active | Not Active | Not Active | – | – | – | – | – | –
